# Data published in patent US10071984B2, “Histone demethylase inhibitors” (Celgene Quanticel Research, Inc., priority 2014, dated 2018).
# Key:
# FBXL10 = FBXL10 (Homo sapiens (Human), UniProt Q8NHM5); assay: FBXL10 in vitro enzyme inhibition assay (AlphaScreen); type: biochemical; conditions: 0.3 nM FBXL10, H3K36me2-biotin peptide
# Description: (§1) This assay determines the ability of a test compound to inhibit FBXL11, FBXL10, and PHF8 demethylase activity. Baculovirus expressed FBXL11 (GenBank Accession #NM_012308, AA1-1162) was purchased from BPS Bioscience (Cat#50102). Baculovirus expressed FBXL10 (GenBank Accession #NM_032590, AA 1-650) was purchased from BPS Bioscience (Cat #50120). Baculovirus expressed PHF8 (GenBank Accession NP_055922.1) was purchased from Active Motif (Cat#31435).
# The ability of test compounds to inhibit the activity of FBXL10 was determined in 384-well plate format under the following reaction conditions: 0.3 nM FBXL10, 30 nM H3K36me2-biotin labeled peptide (Anaspec cat #64442), 0.2 μM alpha-ketoglutaric acid in assay buffer of 50 mM HEPES, pH7.3, 0.005% Brij35, 0.5 mM TCEP, 0.2 mg/ml BSA, 50 μM sodium L-ascorbate, 5 μM ammonium iron(II) sulfate. Reaction product is determined quantitatively by AlphaScreen detection after the addition of detection reagents anti-H3K36me1 antibody, AlphaScreen® Streptavidin-coated Donor beads, and AlphaScreen® Protein A Acceptor beads in 50 mM HEPES, pH7.3, 10 mM NaCl, 0.005% Brij35, 5 mM EDTA, 2 mg/ml BSA to final 10 μg/ml beads.
# The assay reaction was initiated by the following: 3 μl of the mixture of 90 nM H3K36me2-biotin labeled peptide and 0.6 μM alpha-ketoglutaric acid with 3 μl of 11-point serial diluted inhibitor in 3% DMSO are added to each well of 384 well Proxiplate (Perkin Elmer), followed by the addition of 3 μl of 0.9 nM FBXL10 to initiate the reaction. The reaction mixture is incubated at room temperature for 1 hour, and terminated by the addition of 3 μl of appropriate dilution of anti H3K36me1 antibody in 50 mM HEPES, pH7.3, 10 mM NaCl, 0.005% Brij35, 5 mM EDTA, 2 mg/ml BSA. Plates will then incubated at room temperature for 40 minutes, followed by addition of 3 ul of 50 μg/ml AlphaScreen® Streptavidin-coated Donor beads and AlphaScreen® Protein A Acceptor beads in 50 mM HEPES, pH7.3, 10 mM NaCl, 0.005% Brij35, 5 mM EDTA, 2 mg/ml BSA. Plates will then be read by EnVision Multilabel Reader in AlphaScreen mode after minimum 2 hour incubation at room temperature. The AlphaScreen signal for each well is used to determine inhibition constant (IC50).
# (§2) The ability of the compounds disclosed herein to inhibit demethylase activity was quantified and the respective IC50 value was determined.
# PHF8 = PHF8 (Homo sapiens (Human), UniProt Q9UPP1); assay: PHF8 in vitro enzyme inhibition assay (TR-FRET); type: biochemical; conditions: 3 nM PHF8, H3K9me1-biotin peptide
# Description: as §1
# The ability of test compounds to inhibit the activity of PHF8 was determined in 384-well plate format under the following reaction conditions: 3 nM PHF8, 200 nM H3K9me1-biotin labeled peptide (Anaspec cat #64358), 0.5 μM alpha-ketoglutaric acid in assay buffer of 50 mM HEPES, pH7.3, 0.005% Brij35, 0.5 mM TCEP, 0.2 mg/ml BSA, 50 μM sodium L-ascorbate, and 5 μM ammonium iron(II) sulfate. Reaction product was determined quantitatively by TR-FRET after the addition of detection reagent Phycolink Streptavidin-allophycocyanin (Prozyme) and Europium-anti-unmodified-histone H3 lysine 9/lysine27 (H3K9/K27) antibody (PerkinElmer) in the presence of 5 mM EDTA in LANCE detection buffer (PerkinElmer) at a final concentration of 25 nM and 0.5 nM, respectively.
# The assay reaction was initiated by the following: 2 μl of the mixture of 600 nM H3K9me1-biotin labeled peptide and 1.5 μM alpha-ketoglutaric acid with 2 μl of 11-point serial diluted inhibitor in 3% DMSO were added to each well of the plate, followed by the addition of 2 μl of 9 nM PHF8 to initiate the reaction. The reaction mixture was incubated at room temperature for 15 minutes, and terminated by the addition of 6 μl of 5 mM EDTA in LANCE detection buffer containing 50 nM Phycolink Streptavidin-allophycocyanin and 1 nM Europium-anti-unmodified H3K9/K27 antibody. Plates were read by EnVision Multilabel Reader in TR-FRET mode (excitation at 320 nm, emission at 615 nm and 665 nm) after 1 hour incubation at room temperature. A ratio was calculated (665/615) for each well and fitted to determine inhibition constant (IC50).
# as §2
# Chain of FBXL10 (Q8NHM5 1-650): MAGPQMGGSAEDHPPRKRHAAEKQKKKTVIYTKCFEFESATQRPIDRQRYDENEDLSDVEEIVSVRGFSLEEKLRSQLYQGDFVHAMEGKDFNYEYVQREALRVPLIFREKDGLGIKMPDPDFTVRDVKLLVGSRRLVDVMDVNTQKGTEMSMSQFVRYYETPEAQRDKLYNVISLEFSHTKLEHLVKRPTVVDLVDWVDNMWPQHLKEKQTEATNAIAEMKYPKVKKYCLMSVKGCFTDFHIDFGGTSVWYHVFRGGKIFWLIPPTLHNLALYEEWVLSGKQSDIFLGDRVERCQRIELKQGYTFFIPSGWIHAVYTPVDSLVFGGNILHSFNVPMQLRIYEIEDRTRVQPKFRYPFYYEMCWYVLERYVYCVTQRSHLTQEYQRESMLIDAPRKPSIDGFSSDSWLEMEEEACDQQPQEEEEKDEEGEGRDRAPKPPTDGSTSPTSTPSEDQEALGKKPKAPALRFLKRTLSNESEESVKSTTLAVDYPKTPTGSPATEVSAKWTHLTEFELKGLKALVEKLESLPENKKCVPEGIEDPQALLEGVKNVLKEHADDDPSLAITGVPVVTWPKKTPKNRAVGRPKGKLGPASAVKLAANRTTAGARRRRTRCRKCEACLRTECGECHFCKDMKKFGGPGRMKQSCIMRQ
# Chain of PHF8 (Q9UPP1 37-1060): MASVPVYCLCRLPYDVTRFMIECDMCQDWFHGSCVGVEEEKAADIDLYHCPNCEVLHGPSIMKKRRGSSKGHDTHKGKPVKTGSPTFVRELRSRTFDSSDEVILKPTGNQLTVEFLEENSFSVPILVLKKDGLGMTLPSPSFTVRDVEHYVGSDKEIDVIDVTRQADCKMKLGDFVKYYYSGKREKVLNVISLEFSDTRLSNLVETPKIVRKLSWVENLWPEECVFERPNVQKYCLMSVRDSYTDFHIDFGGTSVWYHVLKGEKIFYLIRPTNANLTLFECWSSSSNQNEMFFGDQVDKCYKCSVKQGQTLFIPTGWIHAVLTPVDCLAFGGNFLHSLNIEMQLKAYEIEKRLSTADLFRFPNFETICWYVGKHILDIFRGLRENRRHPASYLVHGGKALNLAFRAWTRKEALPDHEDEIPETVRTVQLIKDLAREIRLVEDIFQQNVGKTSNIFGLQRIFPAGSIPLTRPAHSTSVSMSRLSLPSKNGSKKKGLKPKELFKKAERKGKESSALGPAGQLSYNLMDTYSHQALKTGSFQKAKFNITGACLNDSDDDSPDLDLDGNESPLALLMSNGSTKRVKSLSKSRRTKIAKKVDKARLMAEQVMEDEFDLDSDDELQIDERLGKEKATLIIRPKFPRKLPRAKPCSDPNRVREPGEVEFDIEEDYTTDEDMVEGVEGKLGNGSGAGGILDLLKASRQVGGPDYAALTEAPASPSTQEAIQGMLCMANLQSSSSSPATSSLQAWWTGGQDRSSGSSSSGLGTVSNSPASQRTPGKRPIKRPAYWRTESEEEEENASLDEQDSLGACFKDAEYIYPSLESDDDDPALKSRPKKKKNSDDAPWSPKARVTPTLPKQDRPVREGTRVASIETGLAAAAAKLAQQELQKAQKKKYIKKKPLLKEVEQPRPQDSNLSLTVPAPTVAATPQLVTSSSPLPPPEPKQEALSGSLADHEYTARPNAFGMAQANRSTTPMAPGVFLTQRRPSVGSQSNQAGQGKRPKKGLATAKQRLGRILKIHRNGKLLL
SMILES,IC50 (FBXL10) [nM],IC50 (PHF8) [nM]
"Cn1cnc(-c2cc(-c3nn[nH]c3F)ccn2)c1-c1ccc(F)cc1OCC1CC1 [Example 41, 2-[5-[2-(cyclopropylmethoxy)-4-fluorophenyl]-1-methylimidazol-4-yl]-4-(5-fluoro-1H-triazol-4-yl)pyridine]",≤ 100,1000 to 10000
"c1ccc(-c2ccccc2CCn2cnc(-c3cc(-c4c[nH]nn4)ccn3)c2)cc1 [Example 27, 2-[1-[2-(2-phenylphenyl)ethyl]imidazol-4-yl]-4-(1H-triazol-4-yl)pyridine]",,1000 to 10000
"N#Cc1[nH]nnc1-c1ccnc(-c2cn(Cc3cccc(Cl)c3Cl)cn2)c1 [Example 14, 4-[2-[1-[(2,3-dichlorophenyl)methyl]imidazol-4-yl]pyridin-4-yl]-1H-triazole-5-carbonitrile]",≤ 100,1000 to 10000
"c1ccc(COc2ccccc2CCn2cnc(-c3cc(-c4c[nH]nn4)ccn3)c2)cc1 [Example 17, 2-[1-[2-(2-phenylmethoxyphenyl)ethyl]imidazol-4-yl]-4-(1H-triazol-4-yl)pyridine]",≤ 100,1000 to 10000
"CC(Cc1ccccc1)n1cnc(-c2cc(-c3c[nH]nn3)ccn2)c1 (stereo not shown) [Example 33, 2-[1-(1-phenylpropan-2-yl)imidazol-4-yl]-4-(1H-triazol-4-yl)pyridine]",,1000 to 10000
"Ic1[nH]nnc1-c1ccnc(-c2cn(CCc3cccc4ccccc34)cn2)c1 [Example 38, 4-(5-iodo-1H-triazol-4-yl)-2-[1-(2-naphthalen-1-ylethyl)imidazol-4-yl]pyridine]",≤ 100,> 10000
"c1ccc(Oc2ccccc2CCn2cnc(-c3cc(-c4c[nH]nn4)ccn3)c2)cc1 [Example 18, 2-[1-[2-(2-phenoxyphenyl)ethyl]imidazol-4-yl]-4-(1H-triazol-4-yl)pyridine]",≤ 100,1000 to 10000
"FC(F)(F)c1[nH]nnc1-c1ccnc(-c2cn(CCc3cccc4ccccc34)cn2)c1 [Example 37, 2-[1-(2-naphthalen-1-ylethyl)imidazol-4-yl]-4-[5-(trifluoromethyl)-1H-triazol-4-yl]pyridine]",≤ 100,> 10000
"Cn1cnc(-c2cc(-c3nn[nH]c3Cl)ccn2)c1-c1ccc(F)cc1OCC1CC1 [Example 40, 4-(5-chloro-1H-triazol-4-yl)-2-[5-[2-(cyclopropylmethoxy)-4-fluorophenyl]-1-methylimidazol-4-yl]pyridine]",≤ 100,> 10000
"Cn1cnc(-c2cc(-c3nn[nH]c3C#N)ccn2)c1-c1ccc(F)cc1OCC1CC1 [Example 39, 4-[2-[5-[2-(cyclopropylmethoxy)-4-fluorophenyl]-1-methylimidazol-4-yl]pyridin-4-yl]-1H-triazole-5-carbonitrile]",≤ 100,1000 to 10000
"COc1cccc(Cn2cnc(-c3cc(-c4c[nH]nn4)ccn3)c2)c1F [Example 30, 2-[1-[(2-fluoro-3-methoxyphenyl)methyl]imidazol-4-yl]-4-(1H-triazol-4-yl)pyridine]",≤ 100,100 to 1000
"Fc1[nH]nnc1-c1ccnc(-c2cn(Cc3cccc(Cl)c3Cl)cn2)c1 [Example 20, 2-[1-[(2,3-dichlorophenyl)methyl]imidazol-4-yl]-4-(5-fluoro-1H-triazol-4-yl)pyridine]",≤ 100,100 to 1000
"Fc1c(Cn2cnc(-c3cc(-c4c[nH]nn4)ccn3)c2)cccc1OC(F)(F)F [Example 26, 2-[1-[[2-fluoro-3-(trifluoromethoxy)phenyl]methyl]imidazol-44-yl]-4-(1H-triazol-4-yl)pyridine]",,1000 to 10000
"Cc1cccc(Cn2cnc(-c3cc(-c4c[nH]nn4)ccn3)c2)c1F [Example 28, 2-[1-[(2-fluoro-3-methylphenyl)methyl]imidazol-4-yl]-4-(1H-triazol-4-yl)pyridin]",≤ 100,100 to 1000
"Fc1[nH]nnc1-c1ccnc(-c2cn(CCc3cccc4ccccc34)cn2)c1 [Example 35, 4-(5-fluoro-1H-triazol-4-yl)-2-[1-(2-naphthalen-1-ylethyl)imidazol-4-yl]pyridine]",≤ 100,100 to 1000
"N#Cc1[nH]nnc1-c1ccnc(-c2cn(CCc3cccc4ccccc34)cn2)c1 [Example 16, 4-[2-[1-(2-naphthalen-1-ylethyl)imidazol-4-yl]pyridin-4-yl]-1H-triazole-5-carbonitrile]",≤ 100,100 to 1000

# Second part, the molecule after the results:
IC50 (FBXL10) [nM],IC50 (PHF8) [nM],SMILES
≤ 100,100 to 1000,"Clc1cccc(Cn2cnc(-c3cc(-c4nn[nH]c4I)ccn3)c2)c1Cl [Example 19, 2-[1-[(2,3-dichlorophenyl)methyl]imidazol-4-yl]-4-(5-iodo-1H-triazol-4-yl)pyridine]"
≤ 100,100 to 1000,"COc1cc(-c2c(-c3cc(-c4c[nH]nn4)ccn3)ncn2C)ccc1F [Example 24, 2-[5-(4-fluoro-3-methoxyphenyl)-1-methylimidazol-4-yl]-4-(1H-triazol-4-yl)pyridine]"
≤ 100,100 to 1000,"CC(C)(Cn1cnc(-c2cc(-c3c[nH]nn3)ccn2)c1)c1ccccc1Cl [Example 32, 2-[1-[2-(2-chlorophenyl)-2-methylpropyl]imidazol-4-yl]-4-(1H-triazol-4-yl)pyridine]"
≤ 100,100 to 1000,"c1ccc(OCC2CC2)c(CCn2cnc(-c3cc(-c4c[nH]nn4)ccn3)c2)c1 [Example 11, 2-[1-[2-[2-(cyclopropylmethoxy)phenyl]ethyl]imidazol-4-yl]-4-(1H-triazol-4-yl)pyridine]"
≤ 100,100 to 1000,"N#Cc1[nH]nnc1-c1ccnc(-c2cn(CC3CCCc4ccccc43)cn2)c1 (stereo not shown) [Example 15, 4-[2-[1-(1,2,3,4-tetrahydronaphthalen-1-ylmethyl)imidazol-4-yl]pyridin-4-yl]-1H-triazole-5-carbonitrile]"
≤ 100,≤ 100,"c1ccc2c(c1)OCCC2Cn1cnc(-c2cc(-c3c[nH]nn3)ccn2)c1 (stereo not shown) [Example 12, 2-[1-(3,4-dihydro-2H-chromen-4-ylmethyl)imidazol-4-yl]-4-(1H-triazol-4-yl)pyridine]"
≤ 100,100 to 1000,"Cn1cnc(-c2cc(-c3c[nH]nn3)ccn2)c1-c1ccc(F)cc1 [Example 3, 2-[5-(4-fluorophenyl)-1-methylimidazol-4-yl]-4-(1H-triazol-4-yl)pyridine]"
≤ 100,100 to 1000,"FC(F)(F)c1ccccc1CCn1cnc(-c2cc(-c3c[nH]nn3)ccn2)c1 [Example 31, 4-(1H-triazol-4-yl)-2-[1-[2-[2-(trifluoromethyl)phenyl]ethyl]imidazol-4-yl]pyridine]"
≤ 100,≤ 100,"Fc1c(Cl)cccc1Cn1cnc(-c2cc(-c3c[nH]nn3)ccn2)c1 [Example 29, 2-[1-[(3-chloro-2-fluorophenyl)methyl]imidazol-4-yl]-4-(1H-triazol-4-yl)pyridine]"
≤ 100,100 to 1000,"FC(F)(F)COc1ccccc1CCn1cnc(-c2cc(-c3c[nH]nn3)ccn2)c1 [Example 10, 4-(1H-triazol-4-yl)-2-[1-[2-[2-(2,2,2-trifluoroethoxy)phenyl]ethyl]imidazol-4-yl]pyridine]"
